Here are results for 22 molecules from patent US8772286B2, “MK2 inhibitors” (Merck Sharp & Dohme B.V., priority 2009, dated 2014).

In brackets after ≈: the same amount, converted by molar mass. Like-named read-outs stand apart in the source and are kept apart here.

Data set [1] in a line: Solubility determination of MK2 inhibitors (kinetic aqueous solubility, UPLC). The class given is physicochemical. Conditions: aqueous buffer (system solution from pION inc.), 22 °C, pH 7.4, aqueous buffer, kinetic from dmso stock. How it is done: The solubility can be determined using the Automated Kinetic Aqueous Solubility (AKASol) method, which is an HPLC-UV based method. The method is derived from the classical saturated shake-flask solubility method which has been adapted to the 96-well microtitre plate format, allowing the use of DMSO stock solutions. The solubility is determined by measuring the amount of compound in a saturated aqueous solution, quantified by an external calibration curve of the compound dissolved in DMSO. The solubility (mg/L) is measured at pH 7.4, at room temperature and the final concentration of DMSO in the sample solution is 1%.
The samples were prepared from 10 mM DMSO stock solutions. For each compound under investigation, a volume (9 μL) of the DMSO stock solution is transferred from the DMSO stock solution into 891 μL of buffer solution (system solution from pION inc.) in a 96 deep well plate, which equates to approximately 1% DMSO, using the Packard Multiprobe II robot liquid handling system. The pH of the buffer is manually adjusted at pH 7.4 by adding NaOH. This procedure is done in duplicate for each sample. After shaking for 24 h on a vortex mixer (Heidolph, Titramax 101) at 450 rpm and at room temperature (21-23° C.), 300 uL of the incubated sample is transferred from the deep well plate to a filter plate (PVDF, 0.45 um) on a vacuum manifold. To the filtrate (150 uL) 1-propanol (50 uL) is added to suppress precipitation and this solution is then analysed by UPLC. The solubility is determined using the calibration line previously prepared.
Preparation of the Standards and Built up of a Calibration Line
The calibration line is built with different concentrations of the test compound (standards), prepared from the same 10 mM DMSO stock solution. A volume (7 uL) from the same DMSO stock solution was diluted with DMSO (273 uL) leading to a solution with concentration of 0.25 mM. From this solution, three different injection volumes (0.2, 1, 1.8 uL) were injected on UPLC. The respective peak areas are plotted against amount of compound to build up the calibration line. The calibration line is used to determine the amount of dissolved compound in each sample, selecting the injection that gave peak areas closest to the peak area range of the calibration standards.

A further data set addresses T1, MK2 enzyme (Homo sapiens, UniProt P49137).
T1 construct: MK2 enzyme (active enzyme (peptide 46-end (Millipore))); purchased Millipore
In words: MK2 enzyme activity, IMAP fluorescence polarization assay. Format: biochemical. An excerpt: In another assay the MK2 kinase activity can be determined by using an IMAP assay (Immobilized Metal Assay for Phosphochemicals—based coupled assay). IMAP is a homogeneous fluorescence polarization (FP) assay based on affinity capture of phosphorylated peptide substrates. IMAP uses fluorescein-labeled peptide substrates that, upon phosphorylation by a protein kinase, bind to so called IMAP nanoparticles, which are derivatized with trivalent metal complexes. […] In such an assay, MK2 phosphorylates a fluorescein-labeled peptide substrate (see example 14).
MK2 enzyme activity is measured using the IMAP (immobilized metal ion affinity-based fluorescence polarization) assay as outlined below.
The enzyme is diluted to 100 U/mL the day before use in KR buffer (10 mM Tris-HCl, 10 mM MgCl2, 0.01% Tween-20, 0.05% NaN3, 2 mM DTT, pH 7.2) and stored overnight at −20° C.
The dilutions in DMSO are then diluted 50-fold in KR-buffer of which 5 μl is used in the assay, leading to a final compound concentration range in the assay from 10 μM to 0.316 nM.
After 60 min incubation at room temperature in the dark the FP signal is read. Fluorescence at 535 nm is measured using parallel and perpendicular filters to determine differences in rotation due to binding of the phosphorylated substrate peptide to the beads. Values are calculated as percentage of the difference in readout (ΔmPi) of the controls with and without ATP. EC50 values are determined by curve fitting of the experimental results using Activity Base.
(Polarisation of emitted light reports the rotation of a fluorescent probe.)

The mark [2] stands for this setting: pH 7.4, room temperature, about 1% DMSO, 24 h shaking, read-out: solubility.
[3] abbreviates: MK2 IMAP assay, 1 μM ATP, 30 min pre-incubation, 2 h room temperature, read-out: pEC50 value (converted).
The mark [4] stands for this setting: Table 2, comparison compound of Formula (XVI), spiro ring without amine, MK2 IMAP assay, read-out: pEC50, Formula (XVI) (converted).

T1 sequence (P49137 46-400 limits assumed): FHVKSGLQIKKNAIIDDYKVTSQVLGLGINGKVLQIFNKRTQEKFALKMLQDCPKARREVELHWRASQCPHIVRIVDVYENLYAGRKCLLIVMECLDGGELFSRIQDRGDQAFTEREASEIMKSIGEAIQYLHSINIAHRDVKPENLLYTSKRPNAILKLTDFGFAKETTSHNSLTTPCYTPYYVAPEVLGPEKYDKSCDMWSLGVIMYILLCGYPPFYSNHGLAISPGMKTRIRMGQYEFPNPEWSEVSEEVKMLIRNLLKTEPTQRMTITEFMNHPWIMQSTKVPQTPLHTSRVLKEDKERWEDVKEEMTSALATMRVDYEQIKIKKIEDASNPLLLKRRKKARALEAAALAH

On to `Nc1ncc(-c2nccc(-c3cc4c([nH]3)C3(CCNCC3)CNC4=O)n2)cn1` [1—2, 2′-(2′-amino-2,5′-bipyrimidin-4-yl)-5′,6′-dihydrospiro[piperidine-4,7′-pyrrolo[3,2-c]pyridin]-4′(1′H)-one], for which the solubility at 24 h in data set [1] (setting [2]) lay within 20 to 50 mg/L (≈ 53.1 to 133 µM). Further, the EC50 on MK2 enzyme (setting [3]) is ≤ 3.16 nM.
On to `COc1cncc(-c2nccc(-c3cc4c([nH]3)C3(CCNCC3)CNC4=O)n2)c1` [1—3, 2′-(2-(5-methoxypyridin-3-yl)pyrimidin-4-yl)-5′,6′-dihydrospiro[piperidine-4,7′-pyrrolo[3,2-c]pyridin]-4′(1′H)-one], for which the solubility at 24 h in data set [1] (setting [2]) fell in the range of 20 to 50 mg/L (≈ 51.2 to 128 µM). The EC50 on MK2 enzyme (setting [3]) is 3.16 to 31.6 nM.
On the same counts, the results for `O=C1NCC2(CCNCC2)c2[nH]c(-c3ccnc(-c4ccccc4F)n3)cc21` [1—4, 2′-(2-(2-fluorophenyl)pyrimidin-4-yl)-5′,6′-dihydrospiro[piperidine-4,7′-pyrrolo[3,2-c]pyridin]-4′(1′H)-one] are 20 to 50 mg/L (≈ 53 to 132 µM) and 3.16 to 31.6 nM.
Regarding `O=C1NCC2(CCNCC2)c2[nH]c(-c3ccnc(-c4cccc(F)c4)n3)cc21` [1—5, 2′-(2-(3-fluorophenyl)pyrimidin-4-yl)-5′,6′-dihydrospiro[piperidine-4,7′-pyrrolo[3,2-c]pyridin]-4′(1′H)-one], in data set [1] (setting [2]), the solubility at 24 h was in the range of 20 to 50 mg/L (≈ 53 to 132 µM). In addition, the EC50 on MK2 enzyme (setting [3]) is 3.16 to 31.6 nM.
With `CC(=O)c1ccc(-c2nccc(-c3cc4c([nH]3)C3(CCNCC3)CNC4=O)n2)cc1` [1—6, 2′-(2-(4-acetylphenyl)pyrimidin-4-yl)-5′,6′-dihydrospiro[piperidine-4,7′-pyrrolo[3,2-c]pyridin]-4′(1′H)-one], in data set [1] (setting [2]), the solubility at 24 h was 20 to 50 mg/L (≈ 49.8 to 125 µM). Besides, at MK2 enzyme (setting [3]), the EC50 is 3.16 to 31.6 nM.
Turning to `O=C1NCC2(CCNCC2)c2[nH]c(-c3ccnc(-c4ccc5c(c4)OCO5)n3)cc21` [1—7, 2′-(2-(benzo[d][1,3]dioxol-5-yl)pyrimidin-4-yl)-5′,6′-dihydrospiro[piperidine-4,7′-pyrrolo[3,2-c]pyridin]-4′(1′H)-one], the solubility at 24 h in data set [1] (setting [2]) lay in the range of 20 to 50 mg/L (≈ 49.6 to 124 µM). The EC50 at MK2 enzyme (setting [3]) is 3.16 to 31.6 nM.
With `CC(=O)Nc1ccc(-c2nccc(-c3cc4c([nH]3)C3(CCNCC3)CNC4=O)n2)cn1` [1—8, N-(5-(4-(4′-oxo-1′,4′,5′,6′-tetrahydrospiro[piperidine-4,7′-pyrrolo[3,2-c]pyridine]-2′-yl)pyrimidin-2-yl)pyridin-2-yl)acetamide], the solubility at 24 h in data set [1] (setting [2]) is ≥ 50 mg/L. Moreover, the EC50 on MK2 enzyme (setting [3]) is 3.16 to 31.6 nM.
Take `CCC(=O)Nc1ccc(-c2nccc(-c3cc4c([nH]3)C3(CCNCC3)CNC4=O)n2)cn1` [1—9, N-(5-(4-(4′-oxo-1′,4′,5′,6′-tetrahydrospiro[piperidine-4,7′-pyrrolo[3,2-c]pyridine]-2′-yl)pyrimidin-2-yl)pyridin-2-yl)propionamide]: the solubility at 24 h in data set [1] (setting [2]) was ≥ 50 mg/L. Moreover, the EC50 on MK2 enzyme (setting [3]) is 3.16 to 31.6 nM.
`O=C1NCC2(CCNCC2)c2[nH]c(-c3ccnc(-c4ccc(C(F)(F)F)c(Cl)c4)n3)cc21` [1—10, 2′-(2-(3-chloro-4-(trifluoromethyl)phenyl)pyrimidin-4-yl)-5′,6′-dihydrospiro[piperidine-4,7′-pyrrolo[3,2-c]pyridin]-4′(1′H)-one]: the solubility at 24 h in data set [1] (setting [2]) is ≥ 50 mg/L. In addition, at MK2 enzyme (setting [3]), the EC50 is 3.16 to 31.6 nM.
`O=C1NCC2(CCNCC2)c2[nH]c(-c3ccnc(-c4ccc5c(c4)OCCCO5)n3)cc21` [1—11, 2′-(2-(3,4-dihydro-2H-benzo[b][1,4]dioxepin-7-yl)pyrimidin-4-yl)-5′,6′-dihydrospiro[piperidine-4,7′-pyrrolo[3,2-c]pyridin]-4′(1′H)-one]: the solubility at 24 h in data set [1] (setting [2]) is ≥ 50 mg/L. In addition, at MK2 enzyme (setting [3]), the EC50 is 3.16 to 31.6 nM.
In the case of `O=C1NCC2(CCNCC2)c2[nH]c(-c3ccnc(-c4ccc(-c5ccccc5)cc4)n3)cc21` [1—12, 2′-(2-(biphenyl-4-yl)pyrimidin-4-yl)-5′,6′-dihydrospiro[piperidine-4,7′-pyrrolo[3,2-c]pyridin]-4′(1′H)-one], the solubility at 24 h in data set [1] (setting [2]) fell in the range of 20 to 50 mg/L (≈ 45.9 to 115 µM). For the same molecule, the EC50 on MK2 enzyme (setting [3]) was 3.16 to 31.6 nM.
Consider `CC(C)c1cccc(-c2nccc(-c3cc4c([nH]3)C3(CCNCC3)CNC4=O)n2)c1` [1—14, 2′-(2-(3-isopropylphenyl)pyrimidin-4-yl)-5′,6′-dihydrospiro[piperidine-4,7′-pyrrolo[3,2-c]pyridin]-4′(1′H)-one], for which, in data set [1] (setting [2]), the solubility at 24 h was 20 to 50 mg/L (≈ 49.8 to 125 µM). Moreover, on MK2 enzyme (setting [3]), the EC50 was 31.6 to 316 nM.
Consider `O=C1NCC2(CCNCC2)c2[nH]c(-c3ccnc(-c4ccc(Oc5ccccc5)cc4)n3)cc21` [1—15, 2′-(2-(4-phenoxyphenyl)pyrimidin-4-yl)-5′,6′-dihydrospiro[piperidine-4,7′-pyrrolo[3,2-c]pyridin]-4′(1′H)-one], for which the solubility at 24 h in data set [1] (setting [2]) is ≥ 50 mg/L. Moreover, the EC50 at MK2 enzyme (setting [3]) was 3.16 to 31.6 nM.
On to `O=C1NCC2(CCNCC2)c2[nH]c(-c3ccnc(-c4cccc(OC(F)(F)F)c4)n3)cc21` [1—16, 2′-(2-(3-(trifluoromethoxy)phenyl)pyrimidin-4-yl)-5′,6′-dihydrospiro[piperidine-4,7′-pyrrolo[3,2-c]pyridin]-4′(1′H)-one], for which the solubility at 24 h in data set [1] (setting [2]) is ≥ 50 mg/L. The EC50 at MK2 enzyme (setting [3]) is 3.16 to 31.6 nM.
`O=C1NCC2(CCNCC2)c2[nH]c(-c3ccnc(-c4ccc(C(F)(F)F)cc4)n3)cc21` [1—17, 2′-(2-(4-(trifluoromethyl)phenyl)pyrimidin-4-yl)-5′,6′-dihydrospiro[piperidine-4,7′-pyrrolo[3,2-c]pyridin]-4′(1′H)-one]: in data set [1] (setting [2]), the solubility at 24 h was ≥ 50 mg/L. At MK2 enzyme (setting [3]), the EC50 is 3.16 to 31.6 nM.
On to `O=C1NCC2(CCNCC2)c2[nH]c(-c3ccnc(-c4ccc(C5CCCCC5)cc4)n3)cc21` [1—18, 2′-(2-(4-cyclohexylphenyl)pyrimidin-4-yl)-5′,6′-dihydrospiro[piperidine-4,7′-pyrrolo[3,2-c]pyridin]-4′(1′H)-one], for which the solubility at 24 h in data set [1] (setting [2]) lay within 20 to 50 mg/L (≈ 45.3 to 113 µM). The EC50 at MK2 enzyme (setting [3]) is 31.6 to 316 nM.
For `Cc1cc(-c2nccc(-c3cc4c([nH]3)C3(CCNCC3)CNC4=O)n2)cc(C(C)(C)C)c1` [1—19, 2′-(2-(3-tert-butyl-5-methylphenyl)pyrimidin-4-yl)-5′,6′-dihydrospiro[piperidine-4,7′-pyrrolo[3,2-c]pyridin]-4′(1′H)-one], the solubility at 24 h in data set [1] (setting [2]) was ≥ 50 mg/L. In addition, the EC50 at MK2 enzyme (setting [3]) was 31.6 to 316 nM.
On the same counts, the results for `COc1cc(-c2nccc(-c3cc4c([nH]3)C3(CCNCC3)CNC4=O)n2)ccc1O` [1—20, 2′-(2-(4-hydroxy-3-methoxyphenyl)pyrimidin-4-yl)-5′,6′-dihydrospiro[piperidine-4,7′-pyrrolo[3,2-c]pyridin]-4′(1′H)-one] are ≥ 50 mg/L and 31.6 to 316 nM.
With `O=C1NCCc2[nH]c(-c3ccnc(-c4cnc5ccccc5c4)c3)cc21` [16_1 Formula (XV)], in data set [1] (Table 1, comparison compound of Formula (XV) without spiro ring, pH 7.4, read-out: Solubility pH 7.4 (mg/L), Formula (XV)), the solubility at 24 h amounted to 2 mg/L.
On to `O=C1NCCc2[nH]c(-c3ccnc(-c4cnc5ccccc5c4)n3)cc21` [16_2 Formula (XV)], for which the EC50 at MK2 enzyme was 10 nM.
Consider `O=C1NCC2(CCCC2)c2[nH]c(-c3ccnc(-c4cnc5ccccc5c4)n3)cc21` [17_3 Formula (XVI)], for which, at MK2 enzyme (setting [4]), the EC50 was 251 nM.
Take `O=C1NCC2(CCCC2)c2[nH]c(-c3ccnc(-c4cccc(F)c4)n3)cc21` [17_4 Formula (XVI)]: at MK2 enzyme (setting [4]), the EC50 was 316 nM.
